Paper PMC6479711, “Chemical Constituents of Anacardium occidentale as Inhibitors of Trypanosoma cruzi Sirtuins” (Molecules, 2019)
Where two headings read alike, the source gives them in different places.

Columns and labels:
[1] = tested on: intracellular amastigotes of T. cruzi in infected hFIB; assay: In vitro T. cruzi infection assay (intracellular amastigotes in hFIB, high content imaging); format: cell-based, Trypanosoma cruzi; conditions: read-out: Amastigote EC50 ± SEM
Method: All experiments were performed with the Y strain of T. cruzi. […] The culture was washed with saline solution and infected with trypomastigotes (10 parasites:1 host cell). Following 24 h of incubation, the non-internalized parasites were removed by washing with saline solution, and fresh medium, with or without compounds at different concentrations, was added to the culture before the incubations proceeded for 72 h. Cells were then fixed and stained by the addition of 50 μL of a solution containing 4% paraformaldehyde and 4 μM Draq5 DNA dye (BioStatus, Shepshed, UK) per well. Plates were imaged in an Operetta High Content Imaging System (PerkinElmer, Waltham, MA, USA) confocal microscope using a 10X air objective. Nine images were collected from each well for reliable statistical analysis. The percentage of intracellular parasites was determined and compared to the negative control, and compound antiparasitic activity was also expressed as EC50. The reference drug, benznidazole, was used as the positive control at 50 µM. Each drug concentration was carried out in triplicate.

TcSir2rp3 = TcSir2rp3 (Trypanosoma cruzi, UniProt Q4E5B9, K2R); assay: TcSir2rp3 deacetylase activity assay (fluorogenic peptide, NAD+); format: biochemical
TcSir2rp3, sequence (Q4E5B9 whole entry K2R): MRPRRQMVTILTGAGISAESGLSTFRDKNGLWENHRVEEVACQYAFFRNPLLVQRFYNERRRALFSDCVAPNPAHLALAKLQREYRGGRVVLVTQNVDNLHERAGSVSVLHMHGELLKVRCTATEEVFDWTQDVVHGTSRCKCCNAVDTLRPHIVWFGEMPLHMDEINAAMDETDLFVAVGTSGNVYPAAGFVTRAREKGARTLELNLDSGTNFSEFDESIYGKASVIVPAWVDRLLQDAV
Method: Recombinant TcSir2rp3 was obtained as described previously by. The TcSir2rp3 gene was amplified from the genomic DNA of the T. cruzi Y strain using the oligonucleotides TcSir2rp3_BamHI_F_5′-[…] AGG-3′ and TcSir2rp3_XhoI_R_5′-[…]-3′ and cloned into pET28a (Novagen, Itapira, Brazil). The recombinant vector was used to transform ArcticExpress DE3 bacteria (Agilent Technologies) and protein was expressed by induction with 0.1 mM IPTG at 12 °C.
Deacetylase assays were performed from the protocol established previously by. In summary, the reaction was performed in two steps. In the first step, a synthetic peptide as the substrate (Abz-Gly-Pro-acetyl-Lys-Ser-Gln-EDDnp, where Abz is ortho-aminobenzoic acid and EDDnp is N-[2,4-dinitrophenyl]ethylenediamine) was dissolved in 50 µL of 25 mM Tris-HCl (pH 8.0), 137 mM NaCl, 2.7 mM KCl, and 1 mM MgCl2 containing 0.6 mM NAD^+ (Sigma-Aldrich). TcSir2rp1 or TcSir2rp3 were added and the reactions performed for 4 h at 30 °C. In the inhibition experiments, the enzyme was pre-treated for 30 min at room temperature with the indicated compounds and the addition of the substrate started the reaction. […] After further incubation for 15 min, the fluorescence at 420 nm was read (excitation, 320 nm) in a SpectraMax M3 plate reader (Molecular Devices, Sunnyvale, CA, USA).

TcSir2rp1 = TcSir2rp1 (Trypanosoma cruzi, UniProt Q4DVL9); assay: TcSir2rp1 deacetylase activity assay (fluorogenic peptide, NAD+); format: biochemical; conditions: recombinant enzyme; 30 min pre-incubation; sirtuin activity determined 4 h after incubation; read-out: TcSir2rp1 EC50 ± SEM
TcSir2rp1, sequence (Q4DVL9 entry or part of it): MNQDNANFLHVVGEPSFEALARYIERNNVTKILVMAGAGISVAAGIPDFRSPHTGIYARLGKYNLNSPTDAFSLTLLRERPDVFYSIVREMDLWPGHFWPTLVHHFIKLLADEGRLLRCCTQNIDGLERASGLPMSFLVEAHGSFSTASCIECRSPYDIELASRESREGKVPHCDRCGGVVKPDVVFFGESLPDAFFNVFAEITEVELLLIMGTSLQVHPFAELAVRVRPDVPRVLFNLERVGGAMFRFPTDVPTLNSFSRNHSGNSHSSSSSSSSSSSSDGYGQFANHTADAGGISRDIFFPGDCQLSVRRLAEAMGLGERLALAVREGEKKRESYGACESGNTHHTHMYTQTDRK
Method: Deacetylase assays were performed from the protocol established previously by [8]. In summary, the reaction was performed in two steps. In the first step, a synthetic peptide as the substrate (Abz-Gly-Pro-acetyl-Lys-Ser-Gln-EDDnp, where Abz is ortho-aminobenzoic acid and EDDnp is N-[2,4-dinitrophenyl]ethylenediamine) was dissolved in 50 µL of 25 mM Tris-HCl (pH 8.0), 137 mM NaCl, 2.7 mM KCl, and 1 mM MgCl2 containing 0.6 mM NAD^+ (Sigma-Aldrich). TcSir2rp1 or TcSir2rp3 were added and the reactions performed for 4 h at 30 °C. In the inhibition experiments, the enzyme was pre-treated for 30 min at room temperature with the indicated compounds and the addition of the substrate started the reaction. In the second step, the reactions were stopped with 50 µL of a solution containing 12 mM nicotinamide in 100 mM NaCl and 50 mM Tris-HCl (pH 8.0), in the absence or presence of 0.6 mg/mL trypsin (Sigma-Aldrich). After further incubation for 15 min, the fluorescence at 420 nm was read (excitation, 320 nm) in a SpectraMax M3 plate reader (Molecular Devices, Sunnyvale, CA, USA).

[2] = tested on: Human primary skin fibroblasts (hFIB); assay: Host cell toxicity (AlamarBlue); format: cell-based; conditions: for hFIB CC50 ± SEM: hFIB viability 72 h after treatment
Method: (§1) Human primary skin fibroblasts (hFIB) were obtained from patient skin biopsy and cultured in Dulbecco’s Modified Eagle Medium (DMEM) supplemented with 10% fetal bovine serum (FBS) and Penicillin-Streptomycin (0.2 U/mL) (all from Gibco/Life Technologies, Grand Island, NY, USA). The cells were seeded on 96-well plates at 3 × 10^4 cells/mL and treated with the drugs for 72 h of incubation time. Following the treatments, cells were washed with saline solution twice, and cell viability was determined by the AlamarBlue assay (Thermo Fisher Scientific, Carlsbad, CA, USA), according to the manufacturer’s instructions. Colorimetric readings were performed after 24 h at 570 and 600 nm. Fifty-percent cytotoxic concentration (CC50) values were calculated using data points gathered from three independent experiments.

[3] = Host cell toxicity (AlamarBlue); format: cell-based, human; conditions: human, hFIB viability 72 h after treatment, read-out: hFIB CC50 ± SEM
Method: as §1

[4] = tested on: Trypomastigote forms of T. cruzi (Y strain); assay: Activity against trypomastigotes (viable parasite count); format: cell-based, Trypanosoma cruzi; conditions: for EC50: read-out: Trypomastigote EC50 ± SEM
Method: All experiments were performed with the Y strain of T. cruzi. Trypomastigote forms of T. cruzi were obtained from the supernatant of infected LLC-MK2 cells and maintained in DMEM supplemented with 10% FBS and Penicillin-Streptomycin (100 U/mL) (all from Gibco/Life Technologies) at 37 °C with 5% CO2.
Trypomastigotes were incubated in 96-well plates (2 × 10^6 cells/mL) in DMEM, in the presence or absence of the compounds at different concentrations for 24 h. […] Each compound concentration was tested in triplicate, and three independent experiments were performed. The reference drug, benznidazole, was used as the positive control.

[5] = tested on: amastigote forms of T. cruzi in infected hFIB; assay: In vitro drug combination of compound 2 and benznidazole in infected hFIB (Chou-Talalay CI); format: cell-based; conditions: Trypanosoma cruzi, 72 h, read-out: EC50 ± SD, alone
Method: The culture was washed with saline solution and infected with trypomastigotes (10 parasites:1 host cell). Following 24 h of incubation, the non-internalized parasites were removed by washing with saline solution, and fresh medium, with or without compounds at different concentrations, was added to the culture before the incubations proceeded for 72 h. Cells were then fixed and stained by the addition of 50 μL of a solution containing 4% paraformaldehyde and 4 μM Draq5 DNA dye (BioStatus, Shepshed, UK) per well. Plates were imaged in an Operetta High Content Imaging System (PerkinElmer, Waltham, MA, USA) confocal microscope using a 10X air objective. Nine images were collected from each well for reliable statistical analysis. The percentage of intracellular parasites was determined and compared to the negative control, and compound antiparasitic activity was also expressed as EC50. The reference drug, benznidazole, was used as the positive control at 50 µM. Each drug concentration was carried out in triplicate.

[6] = Trypanosoma cruzi, 72 h, infected hFIB, 72 h after treatment
[7] = infected hFIB, 72 h after treatment
[8] = human primary skin fibroblasts (hFIB)
[9] = Y strain, 24 h after incubation with compounds

Molecule	EC50 [1, 6] [µM]	EC50 [1, 7] [µM]	EC50 (TcSir2rp3) [µM]	EC50 (TcSir2rp1) [µM]	hFIB CC50 ± SEM [2]	CC50 at 72 h [3, 8] [µM]	Trypomastigote EC50 ± SEM [4, 9]	SI (selectivity index), ratio of CC50 (hFIB) to EC50 (amastigote) [2]	also measured
CCC/C=C\C/C=C\CCCCCCCc1cccc(O)c1C(=O)O [Compound 5, 2-Hydroxy-6-(8Z,11Z)-8,11-pentadecadien-1-ylbenzoic acid]	~40	41.7 ± 5.53	6.08 ± 1.16	23.3 ± 2.51	not toxic	> 100	no effect	–	–
O=C(Cn1ccnc1[N+](=O)[O-])NCc1ccccc1 [Benznidazole, reference compound]	–	–	–	–	–	> 100	–	>32	EC50 [5]: 2.17 ± 0.09 µM; EC50 ([1]; Trypanosoma cruzi, 72 h): 3.13 ± 0.87 µM; EC50 ([4]; Trypanosoma cruzi, Y strain, 24 h after incubation with compounds): 11.4 ± 1.09 µM
C=CC/C=C\C/C=C\CCCCCCCc1cc(O)cc(O)c1 [Compound 1, 5-(8Z,11Z)-8,11,14-Pentadecatrien-1-yl-1,3-benzenediol]	11.8 ± 0.4	–	–	–	–	–	–	4	CC50 at 72 h [3]: 47.17 ± 0.1 µM; EC50 ([4]; Trypanosoma cruzi, 24 h): 23.36 ± 0.12 µM
CCCCCC/C=C\CCCCCCCc1cccc(O)c1C(=O)O [Compound 6, 2-Hydroxy-6-(8Z)-8-pentadecenylbenzoic acid]	~40	42.4 ± 5.11	7.41 ± 0.65	16.2 ± 4.88	not toxic	> 100	no effect	–	–
3-(8Z)-8-Pentadecen-1-ylphenol [Compound 4]	–	15.3 ± 2	–	–	–	–	–	–	CC50 [2]: 45.47 ± 0.27 µM; EC50 [4, 9]: 43.5 ± 2.32 µM
